Results on 15 molecules are retold here after US6656911B2, “Serine protease inhibitors” (Cortech, Inc., priority 1994, dated 2003).

The subject of data set [1] is polymorphoneucleocyte (PMN). The experiment in a line: Extracellular Matrix (ECM) degradation assay. The following applies: PMN's stimulated with opsonized zymosan, 4 hr at 37° C.; for ECM DATA % Inhibition 1 uM / inhibition at 1 µM: 1 uM inhibitor; for ECM DATA % Inhibition 5 uM / inhibition at 5 µM: 5 uM inhibitor. Type of data set: cell-based. The gist of the method: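 Radiolabelled ([35S]sulfate/[3H]proline) ECM from R22 rat smooth muscle cells preincubated 30 min with 1 or 5 uM inhibitor in HBSS (<2% DMSO). PMNs (5×10^5/well) stimulated with serum-opsonized zymosan (10 particles/PMN), 4 h at 37 °C. Degradation = released over total ECM counts, minus PMN-free basal release.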

The target in data set [2] is T1, human neutrophil elastase (HNE) (Homo sapiens, UniProt P08246).
T1 sequence (P08246 30-267): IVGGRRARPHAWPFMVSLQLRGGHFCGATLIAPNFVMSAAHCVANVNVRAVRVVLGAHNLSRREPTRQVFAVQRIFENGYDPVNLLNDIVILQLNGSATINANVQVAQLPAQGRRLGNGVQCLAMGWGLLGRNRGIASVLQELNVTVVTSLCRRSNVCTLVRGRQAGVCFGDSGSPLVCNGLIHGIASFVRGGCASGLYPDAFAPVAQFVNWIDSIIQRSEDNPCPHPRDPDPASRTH
In words: HNE Ki of CE compounds, tested as described in WO 96/16080. Type of data set: biochemical.

Data set [3] is described as follows: Blood level screening after oral dose. Type of data set: in vivo, Sprague-Dawley rats. To be noted: rat, oral gavage 10 mg/kg; for concentration at 1 h / concentration at 3 h / concentration at 6 h: male, Sprague-Dawley, plasma; for concentration at 1 h: read-out: Plasma Levels (μM) 1 hr; for concentration at 3 h: read-out: Plasma Levels (μM) 3 hr; for concentration at 6 h: read-out: Plasma Levels (μM) 6 hr. The gist of the method: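 Unfasted male Sprague-Dawley rats received 10 mg/kg by oral gavage in PEG, PEG-400 or PEG:H2O:EtOH. Plasma was solvent-extracted and the inhibitor measured by HPLC or LC/MS.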

Where two headings read alike, the source gives them in different places.

As to `Cc1cccc(Cc2nnc(C(=O)[C@@H](NC(=O)CN3C(=O)NC(C)(c4ccccn4)C3=O)C(C)C)o2)c1` (stereo partly drawn) [CE2216, [4-(R,S)-(2-Pyridyl)-4-(R,S)-methyl]-2,5-imidazolidinedione-N-[1-(2-[5-(3-methylbenzyl)-1,3,4-oxadiazolyl]carbonyl)-2-(S)-methylpropyl]acetamide], in data set [1], the “ECM DATA % Inhibition 1 uM” value was 32.1% and the “ECM DATA % Inhibition 5 uM” value is on record as 37.15%. For the same molecule, in data set [2] (read-out: HNE Ki), the inhibition constant (Ki) came out at 4.1 nM. For the same molecule, in data set [3], the “Plasma Levels (μM) 1 hr” value was determined as 0.77 µM, the “Plasma Levels (μM) 3 hr” value worked out at 0.47 µM and the “Plasma Levels (μM) 6 hr” value was 0.25 µM.

In data set [1], `Cc1cccc(Cc2nnc(C(=O)[C@@H](NC(=O)CN3C(=O)CN=C(c4ccccn4)c4ccccc43)C(C)C)o2)c1` [CE2217, 2-Oxo-5-(2-pyridyl)-1,4-benzodiazepine-N-[1-(2-[5-(3-methylbenzyl)-1,3,4-oxadiazolyl]carbonyl)-2-(S)-methylpropyl]acetamide] displayed an inhibition at 1 µM of 28.1% and an inhibition at 5 µM of 41.2%. Moreover, in data set [2] (HNE Ki (nM)), the affinity corresponds to a Ki of 5.5 nM. Moreover, in data set [3], the concentration at 1 h came out at 1.99 µM and the concentration at 3 h is 0.521 µM.

As for `Cc1cccc(Cc2nnc(C(=O)C(NC(=O)CN3C(=O)C(N)N=C(c4ccc(Cl)cc4)c4ccccc43)C(C)C)o2)c1` [CE2224, (R,S)-3-Amino-2-oxo-5-(4-chlorophenyl)-1,4-benzodiazepine-N-[1-(2-[5-(3-methylbenzyl)-1,3,4-oxadiazolyl]carbonyl)-2-(R,S)-methylpropyl]acetamide], in data set [1], 1 µM produced 43.2% inhibition and at 5 µM the inhibition was 66.8%. For the same molecule, the Ki in data set [2] (read-out: HNE Ki) is 1 nM. Moreover, in data set [3], the concentration at 1 h was determined as 1.84 µM, the concentration at 3 h came to 1.94 µM and the concentration at 6 h was found to be 1.96 µM.

`Cc1cccc(Cc2nnc(C(=O)C(NC(=O)CN3C(=O)C(NC(=O)OCc4ccccc4)N=C(c4ccccc4Cl)c4cc(Cl)ccc43)C(C)C)o2)c1` [CE2230, (R,S)-3-Benzyloxycarbonylamino-2-oxo-5-(2-chlorophenyl)-1,4-(2′-chlorobenzodiazepine)-N-[1-(2-[5-(3-methylbenzyl)-1,3,4-oxadiazolyl]carbonyl)-2-(R,S)-methylpropyl]acetamide]: in data set [1], the “ECM DATA % Inhibition 1 uM” value turned out to be 37.7% and the “ECM DATA % Inhibition 5 uM” value is 37.8%. In addition, in data set [2] (read-out: HNE Ki), the Ki came to 2.6 nM. The “Plasma Levels (μM) 3 hr” value in data set [3] was found to be 0 µM.

As for `Cc1cccc(Cc2nnc(C(=O)[C@@H](NC(=O)CN3C(=O)CN=C(C4CCNCC4)c4ccccc43)C(C)C)o2)c1` [CE2233, 2-Oxo-5-(4-piperidinyl)-1,4-benzodiazepine-N-[1-(2-[5-(3-methylbenzyl)-1,3,4-oxadiazolyl]carbonyl)-2-(S)-methylpropyl]acetamide], in data set [1], the inhibition at 1 µM is 54.7% and 5 µM produced 55.4% inhibition. For the same molecule, in data set [2] (read-out: HNE Ki), the Ki came to 41.6 nM. In data set [3], the concentration at 1 h worked out at 0.07 µM, the concentration at 3 h turned out to be 0.065 µM and the concentration at 6 h stood at 0.036 µM.

For `Cc1cccc(Cc2nnc(C(=O)[C@@H](NC(=O)CN3C(=O)CN=C(c4ccc(C(F)(F)F)cc4)c4ccccc43)C(C)C)o2)c1` [CE2237, 2-Oxo-5-(4-trifluoromethylphenyl)-1,4 benzodiazepine-N-[1-(2-[5-(3-methylbenzyl)-1,3,4-oxadiazolyl]carbonyl)-2-(S)-methylpropyl]acetamide], in data set [1], testing at 1 µM gave an inhibition of 34.6% and testing at 5 µM gave an inhibition of 42.6%. Moreover, in data set [2] (read-out: HNE Ki), the inhibitory constant (Ki) amounted to 3 nM. In data set [3], the concentration at 1 h was determined as 1.02 µM, the concentration at 3 h was 1.8 µM and the concentration at 6 h is 0.84 µM.

For the molecule `Cc1cccc(Cc2nnc(C(=O)[C@@H](NC(=O)CN3C(=O)CNC3=O)C(C)C)o2)c1` [CE2238, 2,5-Imidazolidinedione-N-[1-(2-[5-(3-methylbenzyl)-1,3,4-oxadiazolyl]carbonyl)-2-(S)-methylpropyl]acetamide], in data set [1], the inhibition at 1 µM was 10.1% and at 5 µM the inhibition was 18.8%. Moreover, in data set [2] (read-out: HNE Ki), the inhibitory constant (Ki) amounted to 162 nM. In addition, in data set [3], the concentration at 1 h turned out to be 2.57 µM, the concentration at 3 h was 1.74 µM and the concentration at 6 h amounted to 1.03 µM.

As for `Cc1cccc(Cc2nnc(C(=O)[C@@H](NC(=O)CN3C(=O)NC(C)(C)C3=O)C(C)C)o2)c1` [CE2239, 4,4-Dimethyl-2,5-imidazolidinedione-N-[1-(2-[5-(3-methylbenzyl)-1,3,4-oxadiazolyl]carbonyl)-2-(S)-methylpropyl]acetamide], in data set [1], the “ECM DATA % Inhibition 1 uM” value was 11.9% and the “ECM DATA % Inhibition 5 uM” value is 11.3%. Besides, the Ki in data set [2] (read-out: HNE Ki) amounted to 43 nM. In data set [3], the “Plasma Levels (μM) 1 hr” value came to 1.46 µM, the “Plasma Levels (μM) 3 hr” value was 1.15 µM and the “Plasma Levels (μM) 6 hr” value worked out at 0.71 µM.

For `Cc1cccc(Cc2nnc(C(=O)[C@@H](NC(=O)CN3C(=O)N[C@@H](C(C)C)C3=O)C(C)C)o2)c1` [CE2240, 4-(S)-(2-Isopropyl)-2,5-imidazolidinedione-N-[1-(2-[5-(3-methylbenzyl)-1,3,4-oxadiazolyl]carbonyl)-2-(S)-methylpropyl]acetamide], in data set [1], the “ECM DATA % Inhibition 1 uM” value was determined as 16.8% and the “ECM DATA % Inhibition 5 uM” value came out at 13.5%. In data set [2] (read-out: HNE Ki), the Ki was found to be 30 nM. Moreover, in data set [3], the “Plasma Levels (μM) 1 hr” value is 1.12 µM, the “Plasma Levels (μM) 3 hr” value was 0.5 µM and the “Plasma Levels (μM) 6 hr” value worked out at 0.29 µM.

In the case of `Cc1cccc(Cc2nnc(C(=O)[C@@H](NC(=O)CN3C(=O)NC4(CCCCC4)C3=O)C(C)C)o2)c1` [CE2241, 4-Spirocyclohexane-2,5-imidazolidinedione-N-[1-(2-[5-(3-methylbenzyl)-1,3,4-oxadiazolyl]carbonyl)-2-(S)-methylpropyl]acetamide], in data set [1], the “ECM DATA % Inhibition 1 uM” value was found to be 18.6% and the “ECM DATA % Inhibition 5 uM” value is on record as 31.7%. For the same molecule, the inhibition constant (Ki) in data set [2] (read-out: HNE Ki) worked out at 14 nM. Besides, in data set [3], the “Plasma Levels (μM) 1 hr” value stood at 0.598 µM, the “Plasma Levels (μM) 3 hr” value is 0.289 µM and the “Plasma Levels (μM) 6 hr” value came to 0.078 µM.

`Cc1cccc(Cc2nnc(C(=O)[C@@H](NC(=O)CN3C(=O)N[C@H](Cc4c[nH]c5ccccc45)C3=O)C(C)C)o2)c1` [CE2243, 4-(R)-(3-Indolemethylene)-2,5-imidazolidinedione-N-[1-(2-[5-(3-methylbenzyl)-1,3,4-oxadiazolyl]carbonyl)-2-(S)-methylpropyl]acetamide]: in data set [1], the “ECM DATA % Inhibition 1 uM” value is 48% and the “ECM DATA % Inhibition 5 uM” value is given as 54.9%. Further, the Ki in data set [2] (read-out: HNE Ki) was 11 nM. For the same molecule, in data set [3], the “Plasma Levels (μM) 1 hr” value was found to be 2.801 µM, the “Plasma Levels (μM) 3 hr” value came to 2.104 µM and the “Plasma Levels (μM) 6 hr” value was 1.598 µM.

For `Cc1cccc(Cc2nnc(C(=O)[C@@H](NC(=O)CN3C(=O)N[C@H](CC(C)C)C3=O)C(C)C)o2)c1` [CE2246, 4-(R)-(2-Isobutyl)-2,5-imidazolidinedione-N-[1-(2-[5-(3-methylbenzyl)-1,3,4-oxadiazolyl]carbonyl)-2-(S)-methylpropyl]acetamide], in data set [1], the “ECM DATA % Inhibition 1 uM” value is listed as −2.3% and the “ECM DATA % Inhibition 5 uM” value came out at 32.6%. Further, the Ki in data set [2] (read-out: HNE Ki) came out at 18.5 nM. In addition, in data set [3], the “Plasma Levels (μM) 1 hr” value worked out at 1.182 µM, the “Plasma Levels (μM) 3 hr” value worked out at 0.837 µM and the “Plasma Levels (μM) 6 hr” value came out at 0.496 µM.

For the molecule `Cc1cccc(Cc2nnc(C(=O)[C@@H](NC(=O)CN3C(=O)N[C@H](CC(=O)N(C)C)C3=O)C(C)C)o2)c1` [CE2247, 4-(R)-(2-N,N-Dimethylcarboxamido)-2,5-imidazolidinedione-N-[1-(2-[5-(3-methylbenzyl)-1,3,4-oxadiazolyl]carbonyl)-2-(S)-methylpropyl]acetamide], in data set [1], the “ECM DATA % Inhibition 1 uM” value came out at 13.3% and the “ECM DATA % Inhibition 5 uM” value is 21.2%. The Ki in data set [2] (read-out: HNE Ki) is 62.4 nM. In data set [3], the “Plasma Levels (μM) 1 hr” value stood at 1.017 µM, the “Plasma Levels (μM) 3 hr” value was 0.572 µM and the “Plasma Levels (μM) 6 hr” value turned out to be 0.186 µM.

`Cc1cccc(Cc2nnc(C(=O)[C@@H](NC(=O)CN3C(=O)CN=C(c4ccc5c(c4)OCO5)c4ccccc43)C(C)C)o2)c1` [CE2248]: in data set [1], the “ECM DATA % Inhibition 1 uM” value is 39.4% and the “ECM DATA % Inhibition 5 uM” value is listed as 63.2%. For the same molecule, in data set [2] (read-out: HNE Ki), the inhibition constant (Ki) was found to be 3.1 nM. Further, in data set [3], the “Plasma Levels (μM) 1 hr” value came out at 1.65 µM, the “Plasma Levels (μM) 3 hr” value was 1.58 µM and the “Plasma Levels (μM) 6 hr” value worked out at 1.22 µM.

In the case of `COC(=O)CCC[C@H]1NC(=O)N(CC(=O)N[C@H](C(=O)c2nnc(Cc3cccc(C)c3)o2)C(C)C)C1=O` [CE2249, 4-(R)-(3-Carbomethoxy)propyl-2,5-imidazolidinedione-N-[1-(2-[5-(3-methylbenzyl)-1,3,4-oxadiazolyl]carbonyl)-2-(S)-methylpropyl]acetamide], in data set [1], the “ECM DATA % Inhibition 1 uM” value turned out to be 22.4% and the “ECM DATA % Inhibition 5 uM” value is 42.4%. Besides, the Ki in data set [2] (read-out: HNE Ki) turned out to be 13 nM. Also, in data set [3], the “Plasma Levels (μM) 1 hr” value is 1.179 µM, the “Plasma Levels (μM) 3 hr” value was 0.704 µM and the “Plasma Levels (μM) 6 hr” value came out at 0.213 µM.
